Measurements published in the NIST ThermoML archive (doi:10.1016/j.jct.2016.10.016).

Experiment: mn = molality of the nth substance listed, in mol/kg
Settings: 101.3 kPa, Liquid

O [water] + COC(=O)[C@@H](N)C(C)C.Cl
Settings	speed of sound [m/s]
278.15 K, Frequency=2 MHz, Linear variable-path acoustic interferometer, m2 = 0	1426.2

Settings	mass density [kg/m3]
278.15 K, Pycnometric method, m2 = 0	999.96

COC(=O)[C@H](C)N.Cl [methyl L-alaninate hydrochloride] + O
Settings	speed of sound [m/s]
278.15 K, Frequency=2 MHz, Linear variable-path acoustic interferometer, m1 = 0.0501	1432
278.15 K, Frequency=2 MHz, Linear variable-path acoustic interferometer, m1 = 0.0614	1432.9
278.15 K, Frequency=2 MHz, Linear variable-path acoustic interferometer, m1 = 0.0701	1433.8
278.15 K, Frequency=2 MHz, Linear variable-path acoustic interferometer, m1 = 0.082	1435.4
278.15 K, Frequency=2 MHz, Linear variable-path acoustic interferometer, m1 = 0.091	1437.2
278.15 K, Frequency=2 MHz, Linear variable-path acoustic interferometer, m1 = 0.1004	1437.6
278.15 K, Frequency=2 MHz, Linear variable-path acoustic interferometer, m1 = 0.1099	1438.9
278.15 K, Frequency=2 MHz, Linear variable-path acoustic interferometer, m1 = 0.1219	1440
278.15 K, Frequency=2 MHz, Linear variable-path acoustic interferometer, m1 = 0.1296	1441.4
278.15 K, Frequency=2 MHz, Linear variable-path acoustic interferometer, m1 = 0.1411	1442.6
278.15 K, Frequency=2 MHz, Linear variable-path acoustic interferometer, m1 = 0.1515	1443.6
278.15 K, Frequency=2 MHz, Linear variable-path acoustic interferometer, m1 = 0.1618	1444.4
288.15 K, Frequency=3 MHz, Sing-around technique in a fixed-path interferometer, m1 = 0.0502	1470.7
288.15 K, Frequency=3 MHz, Sing-around technique in a fixed-path interferometer, m1 = 0.0601	1471.8
288.15 K, Frequency=3 MHz, Sing-around technique in a fixed-path interferometer, m1 = 0.07	1473.1
288.15 K, Frequency=3 MHz, Sing-around technique in a fixed-path interferometer, m1 = 0.0801	1474.1
288.15 K, Frequency=3 MHz, Sing-around technique in a fixed-path interferometer, m1 = 0.0901	1475.2
288.15 K, Frequency=3 MHz, Sing-around technique in a fixed-path interferometer, m1 = 0.1003	1476.3
288.15 K, Frequency=3 MHz, Sing-around technique in a fixed-path interferometer, m1 = 0.1101	1477.1
288.15 K, Frequency=3 MHz, Sing-around technique in a fixed-path interferometer, m1 = 0.1202	1477.8
288.15 K, Frequency=3 MHz, Sing-around technique in a fixed-path interferometer, m1 = 0.13	1478.9
288.15 K, Frequency=3 MHz, Sing-around technique in a fixed-path interferometer, m1 = 0.1401	1480
288.15 K, Frequency=3 MHz, Sing-around technique in a fixed-path interferometer, m1 = 0.1504	1481.1
288.15 K, Frequency=3 MHz, Sing-around technique in a fixed-path interferometer, m1 = 0.1603	1482.2
298.15 K, Frequency=3 MHz, Sing-around technique in a fixed-path interferometer, m1 = 0.0486	1500.6
298.15 K, Frequency=3 MHz, Sing-around technique in a fixed-path interferometer, m1 = 0.0601	1502.2
298.15 K, Frequency=3 MHz, Sing-around technique in a fixed-path interferometer, m1 = 0.0697	1503
298.15 K, Frequency=3 MHz, Sing-around technique in a fixed-path interferometer, m1 = 0.0819	1503.6
298.15 K, Frequency=3 MHz, Sing-around technique in a fixed-path interferometer, m1 = 0.0899	1504.7
298.15 K, Frequency=3 MHz, Sing-around technique in a fixed-path interferometer, m1 = 0.0963	1505.2
298.15 K, Frequency=3 MHz, Sing-around technique in a fixed-path interferometer, m1 = 0.11	1506.4
298.15 K, Frequency=3 MHz, Sing-around technique in a fixed-path interferometer, m1 = 0.1184	1507.1
298.15 K, Frequency=3 MHz, Sing-around technique in a fixed-path interferometer, m1 = 0.1302	1508
298.15 K, Frequency=3 MHz, Sing-around technique in a fixed-path interferometer, m1 = 0.1401	1508.9
298.15 K, Frequency=3 MHz, Sing-around technique in a fixed-path interferometer, m1 = 0.1507	1509.8
298.15 K, Frequency=3 MHz, Sing-around technique in a fixed-path interferometer, m1 = 0.1601	1510.3

Settings	mass density [kg/m3]
278.15 K, Pycnometric method, m1 = 0.0501	1001.79
278.15 K, Pycnometric method, m1 = 0.0614	1002.2
278.15 K, Pycnometric method, m1 = 0.0701	1002.52
278.15 K, Pycnometric method, m1 = 0.082	1002.95
278.15 K, Pycnometric method, m1 = 0.091	1003.28
278.15 K, Pycnometric method, m1 = 0.1004	1003.62
278.15 K, Pycnometric method, m1 = 0.1099	1003.97
278.15 K, Pycnometric method, m1 = 0.1219	1004.4
278.15 K, Pycnometric method, m1 = 0.1296	1004.68
278.15 K, Pycnometric method, m1 = 0.1411	1005.1
278.15 K, Pycnometric method, m1 = 0.1515	1005.48
278.15 K, Pycnometric method, m1 = 0.1618	1005.86
288.15 K, Vibrating tube method, m1 = 0.0502	1000.8
288.15 K, Vibrating tube method, m1 = 0.0601	1001.13
288.15 K, Vibrating tube method, m1 = 0.07	1001.47
288.15 K, Vibrating tube method, m1 = 0.0801	1001.8
288.15 K, Vibrating tube method, m1 = 0.0901	1002.14
288.15 K, Vibrating tube method, m1 = 0.1003	1002.49
288.15 K, Vibrating tube method, m1 = 0.1101	1002.82
288.15 K, Vibrating tube method, m1 = 0.1202	1003.16
288.15 K, Vibrating tube method, m1 = 0.13	1003.49
288.15 K, Vibrating tube method, m1 = 0.1401	1003.83
288.15 K, Vibrating tube method, m1 = 0.1504	1004.18
288.15 K, Vibrating tube method, m1 = 0.1603	1004.51
298.15 K, Vibrating tube method, m1 = 0.0486	998.75
298.15 K, Vibrating tube method, m1 = 0.0601	999.01
298.15 K, Vibrating tube method, m1 = 0.0697	999.32
298.15 K, Vibrating tube method, m1 = 0.0819	999.68
298.15 K, Vibrating tube method, m1 = 0.0899	999.97
298.15 K, Vibrating tube method, m1 = 0.0963	1000.19
298.15 K, Vibrating tube method, m1 = 0.11	1000.61
298.15 K, Vibrating tube method, m1 = 0.1184	1000.89
298.15 K, Vibrating tube method, m1 = 0.1302	1001.2
298.15 K, Vibrating tube method, m1 = 0.1401	1001.54
298.15 K, Vibrating tube method, m1 = 0.1507	1001.93
298.15 K, Vibrating tube method, m1 = 0.1601	1002.17
